According to patent US20120165412A1, “Use of Resveratrol or Another Hydroxylated Stilbene For Preserving Cognitive Functioning” (N.V. Nutricia, priority 2009, published 2012):

What was measured:
[1] = Survival, food intake, body weight and general health under chronic dietary supplementation; type: in vivo
Description: (§1) The experiment was performed with male C57BI/6 mice (Harlan, Horst, The Netherlands). Animals were individually housed under a 12 hours light/12 hours dark cycle with lights on at 8:00. Food and drinking water were provided ad libitum, except for the period of behavioural testing as described below. The experiment was started with 60 mice, half of which served as control (CON) and half of which received resveratrol in their food from the age of 1 year onwards (RES). Between the ages of 18 and 20 month, spatial learning performance of the animals was studied in a Y-maze test. At the age of 24 month, brains were collected and processed for immunocytochemistry to asses cholinergic parameters and electron microscopy for several cerebrovascular analyses. The procedures concerning animal care and treatment were in accordance with the regulations of the ethical committee for the use of experimental animals of the University of Groningen.
To rule out differences in food intake between animals on a control diet and resveratrol-supplemented diet, food intake and body weight were monitored every two weeks. To establish whether resveratrol provided in the food enters the circulation, a pilot experiment was performed in which blood was collected from mice by decapitation after 1 day and 30 days of supplementation. Plasma concentrations of resveratrol were measured. After 1 day of supplementation, resveratrol levels in the plasma were 88.5 μg/l at the end of the dark phase or active phase, when mice consume most of their food, and 41 μg/l at the end of the light phase or resting phase (n=3 each). After 1 month of supplementation, the levels were 102.7 and 30.7 μg/l at the end of active phase and rest phase, respectively (n=3 each). These measurements confirm that resveratrol ingested via the food indeed entered the circulation, and the levels appeared to fluctuate over the day in a fashion that paralleled food intake. Supplementation of resveratrol via food thus seemed an appropriate and simple method for further studies.
Animals received resveratrol in their food from 1 year of age onwards. […]

aged mice [2] = experiment: Open field test (general explorative activity); type: in vivo, male C57BI/6 mice; conditions: chronic supplementation
Description: as §1, with “The procedures concerning animal care and treatment were in accordance with the regulations of the ethical committee for the use of experimental animals of the University of Groningen.” left out
To examine general explorative activity, mice were subjected to an open-field test for 5 minutes. […] Position and locomotion of the mice was recorded and analyzed with a computerized video tracking system (Ethovision, Noldus Information Technology, Wageningen, The Netherlands). The number of visits and time spend in each of the two zones was determined. […]
(§2) Behavioural performance was statistically analyzed with a one way ANOVA paradigm for repeated measures. Immunocytochemical data and EM data were statistically analyzed with an independent samples T-test (2-tailed). Data are expressed as averages ±S.E.M. P<0.05 was considered as significant.

aged mice [3] = experiment: Y-maze spatial learning test; type: in vivo, male C57BI/6 mice
Description: as §1
To examine cognitive performance, the mice were subjected to a Y-maze test in which they had to learn the location of a food reward in one of two accessible choice arms. […] The home cages of the mice were equipped with a small sliding door that connected to the starting arm. One of the two test arms was baited with a food reward consisting of small crumbs of the regular food. Food crumbs were also placed below perforations at the end of the two test arms to prevent animals from discriminating between baited and non-baited arms by olfactory cues. […]
The Y-maze test took place during the first half of the light phase between 10:00 and 14:00 in a room adjacent to the home cage room. […] A visit to the baited arm was recorded as a correct trial. […]
as §2

[4] = tested on: cholinergic system (nucleus basalis, hippocampus); experiment: AChE histochemistry of cholinergic cells and fibres; type: in vivo, male C57BI/6 mice; conditions: age 24 months, RES versus CON
Description: The experiment was performed with male C57BI/6 mice (Harlan, Horst, The Netherlands). Animals were individually housed under a 12 hours light/12 hours dark cycle with lights on at 8:00. Food and drinking water were provided ad libitum, except for the period of behavioural testing as described below. The experiment was started with 60 mice, half of which served as control (CON) and half of which received resveratrol in their food from the age of 1 year onwards (RES). Between the ages of 18 and 20 month, spatial learning performance of the animals was studied in a Y-maze test. […]
For histology, brain tissue was cryoprotected in 30% sucrose in 0.1 M phosphate buffer for 48 h after which 20 μm sections were cut with a cryostat (Leica CM3050). […] Cells positive for AChE were quantified in sections containing nucleus basalis (around bregma −0.7) and AChE fibre density measurements were performed by a computerized image analysis system Quantimet (Leica) in the dorsal hippocampus.
as §2

hippocampal microvessels = experiment: Electron microscopy of the cerebrovascular system; type: in vivo, male C57BI/6 mice; conditions: age 24 months
Description: as §1
At the age of 24 months animals were sacrificed for histochemical and electronmicroscopical analysis. Mice were anaesthetized by a high dose of pentobarbital sodium salt (Nembutal, 60 mg/kg bodyweight) and transcardially perfused with heparinised saline followed by 4% phosphate buffered paraformaldehyde. After perfusions, brains were removed from the skull and kept in 0.01 M PBS overnight. […]
After perfusion, 18 brains were prepared for electron microscopy using standard methods. […] The samples were then coverslipped with DPX and analyzed under a light microscope. […] Finally, the samples were analyzed and photographs were taken with a Philips TM10 transmission electron microscope.
For quantitative analysis, approximately 4000 μm^2 tissue surface was scanned systematically in each region, and 61±10 microvascular cross sections were examined in each sample. Vascular density was calculated for a standard surface area with the help of the sample grid. In addition to microvessel density, the occurrence of the following features were quantitated: luminal endothelial protrusions, large empty endothelial vacuoles and basement membrane thickening. […] The number of microvessels displaying any of the noted abnormalities was counted and expressed as percentage of the total number of microvessels examined. Capillaries and arterioles were analyzed separately. Since arterioles were encountered at high enough number for statistical analysis only in the hippocampal vascular layer, quantitative analysis of arteriolar condition was performed for this region of the hippocampus alone.
as §2

[5] = hippocampal microvessels, versus control

Oc1ccc(C=Cc2cc(O)cc(O)c2)cc1 [Resveratrol, 3,5,4′-trihydroxystilbene]
food intake, growth and body weight ([1]; mouse, in vivo): did not affect food intake, growth and body weight | general health (regular visual inspection) ([1]; mouse, in vivo): did not indicate obvious differences in general health | mortality rate ([1]; resveratrol in food from 1 year to 24 months of age, RES versus CON): no significant differences in mortality rate | more time spent in the centre of the arena than control animals (aged mice [2]; 5 minutes open field test, p=0.003): about 50% | locomotion (total distance covered) in open field (aged mice [2]; 5 minutes test, RES versus CON): the same amount of locomotion | Y-maze final level of performance on day 3 and retention trial on day 10 (aged mice [3]; RES versus CON): not different | Y-maze performance on the second day of the training phase (aged mice [3]; posthoc test, RES versus CON, p<0.05): performed better then CON animals | Y-maze learning (number of correct choices on day 1 to 3) (aged mice [3]; training phase, age 18-20 months, repeated measures ANOVA p=0.016): improved learning | cholinergic cell number in the nucleus basalis [4]: did not reveal any difference | cholinergic fibre density in the CA1 and dentate gyrus of the hippocampus [4]: unchanged | vascular density in the hippocampus, higher than in control animals (hippocampal microvessels; chronic supplementation, p=0.019): about 15% | number of microvessels with endothelial vacuoles (hippocampal microvessels; hippocampal arterioles, versus control, p=0.05): significantly reduced | occurrence of basement membrane thickening (hippocampal microvessels; [5]): not significantly affected | occurrence of endothelial processes (hippocampal microvessels; [5]): not significantly affected
